From DBAASP
Values after ≈ are worked out from the molar mass of the structure shown.

Tests used:
Test in all cases: ≥ marks a high value that may be exact or a test limit, other limits are often not marked, values filed in µg/mL are converted to µM
[1] = tested on: Streptococcus pyogenes M1T1 5448
Escherichia coli BL21 = tested on: Escherichia coli BL21
[2] = tested on: Pseudomonas aeruginosa PAO1
[3] = tested on: Staphylococcus aureus ATCC 12600
[4] = tested on: Escherichia coli ATCC 25922
[5] = tested on: Streptococcus mutans ATCC 25175
[6] = tested on: Pseudomonas aeruginosa ATCC 27853
[7] = tested on: Escherichia coli DH5alpha
[8] = tested on: Zymomonas mobilis ATCC 10988
Candida parapsilosis = tested on: Candida parapsilosis
Bacillus subtilis DELTA = tested on: Bacillus subtilis DELTA
[9] = tested on: Enterococcus faecalis ATCC 29212
[10] = tested on: Staphylococcus epidermidis ATCC 12228
[11] = tested on: Staphylococcus aureus ATCC 43300
Staphylococcus aureus = tested on: Staphylococcus aureus
[12] = tested on: Salmonella enterica subsp. enterica serovar Typhimurium C77-31
Streptococcus agalactiae = tested on: Streptococcus agalactiae
Escherichia coli UB1005 = tested on: Escherichia coli UB1005
[13] = tested on: Staphylococcus aureus ATCC 29213
[14] = tested on: Salmonella enterica subsp. enterica serovar Choleraesuis CVCC 503
[15] = tested on: Salmonella enterica subsp. enterica serovar Pullorum C79-13
[16] = tested on: Salmonella enterica subsp. enterica serovar Typhimurium ATCC 14028
[17] = tested on: Bacillus subtilis ATCC 6051
[18] = tested on: Escherichia coli NEB5alpha
Escherichia coli K88 = tested on: Escherichia coli K88
[19] = tested on: Bacillus subtilis CMCC 63501
Escherichia coli 078 = tested on: Escherichia coli 078
Escherichia coli K99 = tested on: Escherichia coli K99
[20] = tested on: Staphylococcus aureus ATCC 25923

## CC[C@H](C)[C@H](NC(=O)[C@H](CCCCN)NC(=O)[C@H](CCCCN)NC(=O)[C@H](CCCCN)NC(=O)[C@H](CC(C)C)NC(=O)[C@H](CCCN=C(N)N)NC(=O)[C@H](CCC(N)=O)NC(=O)[C@H](Cc1ccccc1)NC(=O)[C@@H](NC(=O)[C@@H](NC(=O)[C@H](CCC(=O)O)NC(=O)[C@H](CCCCN)NC(=O)CNC(=O)[C@H](C)N)[C@@H](C)O)[C@@H](C)CC)C(=O)N[C@@H](CCC(N)=O)C(=O)N[C@@H](CCC(=O)O)C(=O)N[C@@H](CCCCN)C(=O)NCC(=O)N[C@@H](CCCCN)C(=O)N[C@@H](CCCN=C(N)N)C(=O)N[C@@H](C)C(=O)N[C@H](C(=O)N[C@H](C(=O)N[C@@H](Cc1c[nH]c2ccccc12)C(=O)N[C@@H](Cc1c[nH]c2ccccc12)C(=O)O)[C@@H](C)CC)[C@@H](C)O [AGKETIFQRLKKKIQEKGKRATIWW]
[1]
  MIC: 0.25 µM (≈ 0.761 µg/mL)
Escherichia coli BL21
  MIC: 4 µM (≈ 12.2 µg/mL)
[2]
  MIC: 16 µM (≈ 48.7 µg/mL)

## CC[C@H](C)[C@H](NC(=O)[C@H](Cc1ccccc1)NC(=O)[C@H](C)NC(=O)[C@H](CCCCN)NC(=O)[C@H](CCCCN)NC(=O)[C@H](Cc1c[nH]c2ccccc12)NC(=O)[C@H](CCCN=C(N)N)NC(=O)[C@H](CCCCN)NC(=O)[C@H](CCCN=C(N)N)NC(=O)[C@H](CC(C)C)NC(=O)[C@H](CCC(=O)O)NC(=O)[C@H](CCC(=O)O)NC(=O)[C@H](CC(C)C)NC(=O)[C@H](CC(C)C)NC(=O)[C@H](Cc1ccc(O)cc1)NC(=O)[C@H](CCCCN)NC(=O)[C@@H](NC(=O)[C@H](CC(C)C)NC(=O)[C@H](C)NC(=O)[C@H](CCC(N)=O)NC(=O)[C@H](CCCN=C(N)N)NC(=O)CNC(=O)[C@H](C)N)[C@@H](C)O)C(=O)N[C@@H](C)C(=O)N[C@@H](Cc1c[nH]c2ccccc12)C(=O)O [AGRQALTKYLLEELRKRWKKAFIAW]
[1]
  MIC: 2 µM (≈ 6.15 µg/mL)
Escherichia coli BL21
  MIC: 1 µM (≈ 3.08 µg/mL)
[2]
  MIC: 64 µM (≈ 197 µg/mL)

## CC[C@H](C)[C@H](NC(=O)[C@H](C)NC(=O)CNC(=O)[C@H](Cc1ccccc1)NC(=O)[C@H](CC(C)C)NC(=O)CN)C(=O)N[C@@H](C)C(=O)NCC(=O)N[C@@H](Cc1ccccc1)C(=O)N[C@H](C(=O)N[C@@H](CCCCN)C(=O)NCC(=O)NCC(=O)N[C@@H](Cc1c[nH]c2ccccc12)C(=O)N1CCC[C@H]1C(=O)NCC(=O)N[C@@H](CC(C)C)C(=O)N[C@H](C(=O)N[C@@H](CCCCN)C(=O)NCC(N)=O)C(C)C)[C@@H](C)CC [GLFGAIAGFIKGGWPGLVKG]
[3]
  MIC: 16 µM (≈ 31.1 µg/mL)
[4]
  MIC: 16 µM (≈ 31.1 µg/mL)
[5]
  MIC: 11.3 µM (≈ 22 µg/mL)
[6]
  MIC: > 64.3 µM

## CC[C@H](C)[C@H](NC(=O)[C@H](Cc1ccccc1)NC(=O)[C@H](CCCCN)NC(=O)[C@H](CC(C)C)NC(=O)[C@H](CC(C)C)NC(=O)CN)C(=O)N[C@@H](CCCCN)C(=O)N[C@@H](CCCN=C(N)N)C(=O)N[C@@H](CC(C)C)C(=O)N[C@@H](CC(C)C)C(N)=O [GLLKFIKRLL]
[7]
  MIC: ≥ 167 µM
[8]
  MIC: 4.16 µM (≈ 5 µg/mL)
Candida parapsilosis
  MIC: 8.33 µM (≈ 9.99 µg/mL)
Bacillus subtilis DELTA
  MIC: ≥ 167 µM
[2]
  MIC: 2.5 µM (≈ 3 µg/mL)

## CC[C@H](C)[C@H](NC(=O)[C@H](CCCCN)NC(=O)[C@H](CC(C)C)NC(=O)[C@H](CC(C)C)NC(=O)CN)C(=O)N[C@H](C(=O)N[C@@H](CCCCN)C(=O)N[C@@H](CCCN=C(N)N)C(=O)N[C@@H](CC(C)C)C(=O)N[C@@H](CC(C)C)C(N)=O)[C@@H](C)CC [GLLKIIKRLL]
[7]
  MIC: ≥ 171 µM
[8]
  MIC: 4.29 µM (≈ 5 µg/mL)
Candida parapsilosis
  MIC: 12.9 µM (≈ 15 µg/mL)
Bacillus subtilis DELTA
  MIC: 8.57 µM (≈ 9.99 µg/mL)
[2]
  MIC: 2.57 µM (≈ 3 µg/mL)

## CC[C@H](C)[C@H](N)C(=O)N[C@H](C(=O)N[C@@H](CS)C(=O)N[C@@H](CCCN=C(N)N)C(=O)N[C@@H](CCCCN)C(=O)N1CCC[C@H]1C(=O)N[C@H](C(=O)N[C@H](C(=O)N[C@@H](CS)C(=O)N[C@@H](CCCN=C(N)N)C(=O)N[C@@H](CCCCN)C(=O)N1CCC[C@H]1C(=O)N[C@H](C(=O)N[C@H](C(N)=O)[C@@H](C)CC)[C@@H](C)CC)[C@@H](C)CC)[C@@H](C)CC)[C@@H](C)CC [IICRKPIICRKPII]
[9]
  MIC: > 64 µM
[10]
  MIC: > 64 µM
[11]
  MIC: > 64 µM
[4]
  MIC: 16 µM (≈ 26.6 µg/mL)
Staphylococcus aureus
  MIC: > 64 µM
[12]
  MIC: ≥ 32 µM
Streptococcus agalactiae
  MIC: ≥ 64 µM
Escherichia coli UB1005
  MIC: 16 µM (≈ 26.6 µg/mL)
[13]
  MIC: > 64 µM
[14]
  MIC: ≥ 64 µM
[15]
  MIC: ≥ 64 µM
[16]
  MIC: 32 µM (≈ 53.3 µg/mL)

## CC[C@H](C)[C@H](NC(=O)[C@H](C)NC(=O)CNC(=O)[C@H](CCCCN)NC(=O)[C@H](CCC(=O)O)NC(=O)[C@H](CCC(=O)O)NC(=O)[C@H](CC(=O)O)NC(=O)[C@H](CCC(=O)O)NC(=O)[C@H](CC(N)=O)NC(=O)[C@H](CCCN=C(N)N)NC(=O)CNC(=O)[C@H](CCC(N)=O)NC(=O)[C@H](CC(C)C)NC(=O)[C@@H](N)CCCCN)C(=O)N[C@H](C(=O)N[C@@H](CCCCN)C(=O)N[C@H](C(=O)N[C@@H](CCCCN)C(=O)O)C(C)C)C(C)C [KLQGRNEDEEKGAIVKVK]
[17]
  MIC: ≥ 1000 µM
[18]
  MIC: ≥ 1000 µM

## CC[C@H](C)[C@H](NC(=O)[C@H](C)NC(=O)[C@H](C)NC(=O)[C@H](CCCN=C(N)N)NC(=O)[C@H](CC(=O)O)NC(=O)[C@H](CC(N)=O)NC(=O)[C@@H](NC(=O)[C@@H](N)CCCCN)[C@@H](C)O)C(=O)NCC(=O)N[C@@H](CCCCN)C(=O)N[C@@H](CC(C)C)C(=O)N[C@H](C(=O)NCC(=O)N[C@@H](C)C(=O)N[C@H](C(=O)N[C@@H](CO)C(=O)N[C@@H](CO)C(=O)N[C@@H](CC(C)C)C(=O)O)[C@@H](C)O)C(C)C [KTNDRAAIGKLVGATSSL]
[18]
  MIC: ≥ 1000 µM

## CC[C@H](C)[C@H](NC(=O)[C@H](Cc1c[nH]c2ccccc12)NC(=O)[C@H](CCCCN)NC(=O)[C@H](CC(C)C)NC(=O)[C@@H](NC(=O)[C@H](Cc1c[nH]c2ccccc12)NC(=O)CNC(=O)[C@@H](NC(=O)[C@H](CCCCN)NC(=O)[C@H](Cc1c[nH]c2ccccc12)NC(=O)[C@H](CC(C)C)NC(=O)[C@@H](N)CCCN=C(N)N)[C@@H](C)CC)C(C)C)C(N)=O [RLWKIGWVLKWI]
Escherichia coli K88
  MIC: 2 µM (≈ 3.19 µg/mL)
[19]
  MIC: 2 µM (≈ 3.19 µg/mL)
[9]
  MIC: 4 µM (≈ 6.39 µg/mL)
[10]
  MIC: 16 µM (≈ 25.6 µg/mL)
[4]
  MIC: 16 µM (≈ 25.6 µg/mL)
Escherichia coli 078
  MIC: 4 µM (≈ 6.39 µg/mL)
Escherichia coli K99
  MIC: 4 µM (≈ 6.39 µg/mL)
[12]
  MIC: 16 µM (≈ 25.6 µg/mL)
Escherichia coli UB1005
  MIC: 16 µM (≈ 25.6 µg/mL)
[13]
  MIC: 8 µM (≈ 12.8 µg/mL)
[15]
  MIC: 2 µM (≈ 3.19 µg/mL)
[16]
  MIC: 8 µM (≈ 12.8 µg/mL)
[20]
  MIC: 16 µM (≈ 25.6 µg/mL)

## CC(C)[C@H](N)C(=O)N[C@@H](CS)C(=O)N[C@@H](CCCN=C(N)N)C(=O)N[C@@H](CCCCN)C(=O)N1CCC[C@H]1C(=O)N[C@H](C(=O)N[C@H](C(=O)N[C@@H](CS)C(=O)N[C@@H](CCCN=C(N)N)C(=O)N[C@@H](CCCCN)C(=O)N1CCC[C@H]1C(=O)N[C@H](C(N)=O)C(C)C)C(C)C)C(C)C [VCRKPVVCRKPV]
[9]
  MIC: > 64 µM
[10]
  MIC: > 64 µM
[11]
  MIC: > 64 µM
[4]
  MIC: > 64 µM
Staphylococcus aureus
  MIC: > 64 µM
[12]
  MIC: ≥ 64 µM
Streptococcus agalactiae
  MIC: ≥ 64 µM
Escherichia coli UB1005
  MIC: ≥ 64 µM
[13]
  MIC: > 64 µM
[14]
  MIC: ≥ 64 µM
[15]
  MIC: ≥ 64 µM
[16]
  MIC: > 64 µM
